Data reported in patent US20250213647A1, “CHEMOKINE RECEPTORS AND ALPHA1 ADRENERGIC RECEPTORS/VASOPRESSIN RECEPTORS 1A HETEROMERS AS DRUG TARGETS FOR DISEASE” (UNIVERSITY OF SOUTH FLORIDA, priority 2022, published 2025).

What was measured:
CCR2 [1] = biological target: T1, CCR2 (Homo sapiens, UniProt P41597); assay: PRESTO-Tango β-arrestin recruitment assay, HTLA cells with CCR2-Tango plus pcDNA3; assay type: cell-based; conditions: absence of α1b-AR; FIG. 5A
Experimental: (§1) The assays were performed as described previously (Albee, 2017; Gao, 2022; Albee, 2018; Eby, 2017; Cheng, 2017). HTLA cells were seeded in a 6-well plate and transfected with 750 ng FLAG-CCR2-Tango together with 750 ng pcDNA3.1 or HA-α1b-AR using TransIT-2020 Transfection Reagent. The next day, cells (75,000 cells/well) were plated onto poly-L-Lysine pre-coated 96-well plates and allowed to attach to the plate surface for at least 4 hours prior to treatment. Cells were treated with receptor ligands at the concentrations indicated in the figure legends for 2 h and then replaced with fresh full medium and incubated overnight at 37° C., 5% CO2 in a humidified environment. The following morning, medium was replaced with a 100 μL 1:10 mixture of Bright-Glo (Promega) and PBS. Plates were then incubated at room temperature for 10 min before measuring luminescence on a Biotek Synergy II plate reader. Relative luminescence units (RLU) are expressed as fold changes of RLU vs unstimulated cells.

CCR1 = assay: Chemotaxis assay, human monocytes toward CCL23 (CCR1-mediated); assay type: cell-based; conditions: mean±SE, read-out: IC50 for inhibition of CCR1-mediated chemotaxis
Experimental: (§2) Cell migration was measured employing the Neuroprobe (Gaithersburg, MD, USA) ChemoTx® Disposable Chemotaxis System. A 96-well Boyden-chamber (30 μL/well, 8 μm pores, 1×10^5 pores/cm^2 pore density) was selected for all chemotaxis experiments. Bottom wells of the Boyden-chamber were loaded with 30 μL of test substances at various concentrations. Top wells of the membrane were loaded with 25 μL of THP-1 cells, THP-1_ADRA1B^KO, wild type THP-1 cells after clonal expansion (=control for THP-1_ADRA1B^KO) or freshly isolated monocytes (200 cells/μL). THP-1 cells were suspended in depleted RPMI1640 (0.5% HyClone™ fetal bovine serum, Sigma); Freshly isolated monocytes were suspended in RPMI1640 (0.5% human platelet poor plasma, Sigma). After 3 hours, transmigrated cells were counted utilizing the Cytation 1 plate reader (BioTek) by direct imaging in high contrast bright field (4×) and post-imaging particle analyses with Gen5 (v3.05) Imaging & Microscopy Software (BioTek). The chemotactic index (CI) was calculated as the ratio of cells that transmigrated in the presence versus the absence of the test solutions.

CXCR4 = assay: Chemotaxis assay, human monocytes toward CXCL12 (CXCR4-mediated); assay type: cell-based; conditions: mean±SE, read-out: IC50 for inhibition of CXCR4-mediated chemotaxis
Experimental: as §2

CCR8 = assay: Chemotaxis assay, human monocytes toward CCL1 (CCR8-mediated); assay type: cell-based
Experimental: as §2

[2] = tested on: CR heteromerization partners of α1B/D-ARs (CCR1, CCR2, CXCR4); assay: Chemotaxis assay, human monocytes, CR heteromerization partners of α1B/D-ARs taken together; assay type: cell-based; conditions: FIG. 17B
Experimental: as §2

CCR2 [3] = biological target: T1, CCR2; assay: CCR2 internalization in THP-1 cells (flow cytometry); assay type: cell-based; set-up: host or cells: THP-1; conditions: 100 nM CCL2 plus 1 μM PE, 0-45 min at 37° C.; FIG. 7A/B
Experimental: To examine receptor internalization in THP-1 cells, cells were incubated with 100 nM CCL2 or with 100 nM CCL2 plus 1 μM PE for 0-45 min at 37° C. Cells were then cooled on ice and washed with 50 mM glycine buffer, pH 2.7, 150 mM NaCl, followed by washing with ice-cold PBS. Cell surface CCR2 was probed with anti-CCR2 and corresponding secondary Alexa 488-conjugated antibodies. Receptor cell surface expression levels are examined by flow cytometry and expressed as the median fluorescence intensity (MFI) in percent of the MFI measured at 0 min (=100%).

CCR2 [4] = biological target: T1, CCR2; assay: Chemotaxis assay, human monocytes toward CCL2 (CCR2-mediated); assay type: cell-based; set-up: host or cells: THP-1; conditions: mean±SE, read-out: IC50 for inhibition of CCR2-mediated chemotaxis
Experimental: as §2

CCR2:α1b-AR heteromers [5] = biological target: T2, CCR2:α1b-AR heteromers (Homo sapiens, UniProt P35368+P41597); assay: PRESTO-Tango β-arrestin recruitment assay, HTLA cells with CCR2-Tango plus α1b-AR; assay type: cell-based; set-up: Tango module of the TANGO vector (C); expressed in transfected cells; host or cells: HTLA
T2 sequence (P41597 whole entry, one chain of several): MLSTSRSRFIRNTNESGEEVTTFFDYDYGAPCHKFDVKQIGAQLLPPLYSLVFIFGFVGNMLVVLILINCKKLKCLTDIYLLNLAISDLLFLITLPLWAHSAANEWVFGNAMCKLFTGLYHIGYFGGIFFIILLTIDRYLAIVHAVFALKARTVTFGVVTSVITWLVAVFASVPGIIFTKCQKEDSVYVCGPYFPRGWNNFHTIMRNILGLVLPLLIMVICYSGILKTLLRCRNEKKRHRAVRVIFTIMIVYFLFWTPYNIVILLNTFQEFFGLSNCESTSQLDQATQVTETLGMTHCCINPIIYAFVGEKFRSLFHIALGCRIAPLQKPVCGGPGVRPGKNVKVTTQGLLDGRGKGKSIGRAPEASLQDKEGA
Experimental: as §1

[6] = biological target: T3, heteromerization between α1b-AR and CCR2 (Homo sapiens, UniProt P35368); assay: Saturation BRET to assess receptor heterodimerization (α1b-AR-RlucII / CCR2-EYFP, HEK293T); conditions: 10 μM ligand, 5 min; for BRETmax: FIG. 3B; for BRET50 values: FIG. 3C
T3 sequence (P35368 1-520): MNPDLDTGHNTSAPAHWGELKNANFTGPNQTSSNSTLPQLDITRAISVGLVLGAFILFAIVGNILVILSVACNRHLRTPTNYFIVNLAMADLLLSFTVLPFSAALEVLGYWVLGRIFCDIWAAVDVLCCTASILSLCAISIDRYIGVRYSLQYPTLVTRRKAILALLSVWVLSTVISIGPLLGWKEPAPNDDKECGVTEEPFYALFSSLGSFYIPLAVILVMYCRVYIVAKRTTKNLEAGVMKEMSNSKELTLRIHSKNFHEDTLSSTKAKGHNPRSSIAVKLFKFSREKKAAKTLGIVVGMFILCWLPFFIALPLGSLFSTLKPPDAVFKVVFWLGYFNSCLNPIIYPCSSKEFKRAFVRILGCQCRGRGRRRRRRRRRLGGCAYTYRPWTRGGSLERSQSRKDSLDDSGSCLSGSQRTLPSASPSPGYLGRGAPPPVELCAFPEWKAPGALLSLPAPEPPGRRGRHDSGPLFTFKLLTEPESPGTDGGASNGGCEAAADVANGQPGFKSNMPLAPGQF

CCR2:α1b-AR heteromers [7] = biological target: T2, CCR2:α1b-AR heteromers; assay: BRET assay for β-arrestin recruitment, HEK293T co-expressing CCR2-Rluc, β-arrestin-YFP and α1b-AR; assay type: cell-based; set-up: expressed in transfected cells; conditions: CCL2 plus 10 μM ligand; FIG. 5D
Experimental: β-arrestin recruitment was measured by BRET, as described (Armando, 2014; Berchiche, 2011). In brief, HEK293T cells were plated in a 6-well plate and transfected with 0.1 μg of CCR2-RluII and 1.9 μg β-arrestin-YFP with 0.1 μg pcDNA3.1 or α1b-AR. One day after transfection, cells were re-plated into 96-well poly-L lysine precoated plates. After overnight incubation, cells were replaced with 0.1% glucose/PBS. Coelenterazine H in a final concentration of 5 μM was added to cells and incubated at room temperature for 3 min. […] The BRET changes were calculated by subtracting the BRET signal of untreated cells.

T1 sequence (P41597 whole entry): as the sequence (P41597 whole entry, one chain of several) above

## CNC[C@H](O)c1cccc(O)c1 [phenylephrine]
CCR2 [1]
  β-arrestin recruitment to CCR2-Tango by the ligand: did not induce
CCR1
  IC50: 12 ± 8 nM
CXCR4
  IC50: 6 ± 3 nM
CCR8
  CCL1-induced chemotaxis: not affected
[2]
  inhibition of chemotaxis mediated via CR heteromerization partners of α1B/D-ARs: 60-77%
CCR2 [3]
  CCR2 cell surface expression, CCL2 plus ligand vs CCL2 alone: significantly reduced CCR2 expression
CCR2 [4]
  IC50: 37 ± 26 nM
CCR2:α1b-AR heteromers [5]; agonist alone
  efficacy to induce β-arrestin recruitment to CCR2: 2.4±0.14 fold change RLU
CCR2:α1b-AR heteromers [5]; co-stimulated with CCL2 and 1 μM PE vs CCL2 alone
  increase of the efficacy of CCL2 to recruit β-arrestin to CCR2: 3 fold
CCR2:α1b-AR heteromers [5]; co-stimulated with CCL2 and 1 μM PE, FIG. 5B
  efficacy of CCL2 to recruit β-arrestin to CCR2 in the presence of the ligand: 130±12 fold change RLU
[6]
  BRETmax: did not affect
  BRET50 values: significantly increased

## Cc1ccc(N(CC2=NCCN2)c2cccc(O)c2)cc1 [phentolamine]
CCR2 [1]
  β-arrestin recruitment to CCR2-Tango by the ligand: did not induce
CCR2:α1b-AR heteromers [7]
  Top plateau, β-arrestin recruitment BRET in the presence of the ligand: 0.061±0.002
CCR2:α1b-AR heteromers [5]; 1 μM PT, FIG. 5B
  effect on CCL2-induced β-arrestin recruitment to CCR2: did not affect
CCR2:α1b-AR heteromers [5]; cells co-transfected with CCR2-Tango plus α1b-AR, FIG. 5A
  β-arrestin recruitment to CCR2-Tango by the ligand: had no effect
[6]
  BRETmax: did not affect
  BRET50 values: significantly increased
